Measurements as given in patent US9920014B2, “Selective inhibition of bacterial topoisomerase I” (THE FLORIDA INTERNATIONAL BOARD OF TRUSTEES MODESTO A. …, priority 2013, dated 2018).
Values after ≈ are worked out from the molar mass of the structure shown. Read-outs that look alike come from different tables or passages of the source.

Experiments:
[1] = molecular target: human DNA topoisomerase II (Homo sapiens, UniProt P11388); experiment: Inhibition assay against human DNA topoisomerase II (plasmid relaxation, agarose gel); type: biochemical; settings: for inhibition of human DNA topoisomerase II activities at 50 μM: 50 μM compound; for IC50: 4 units enzyme, supercoiled pBAD-GFPuv, 30 min 37° C., read-out: IC50 hTopo II
Description: Inhibition Assays Against Human DNA Topoisomerase II:
The reaction mixture (25 μl) contained 20 mM Tris-HCl at pH 7.9, 50 mM KAc, 10 mM Mg(Ac)2, 1 mM DTT, 1 μg/mL BSA, 200 ng supercoiled plasmid pBAD-GFPuv, 4 units of Human topoisomerase II, and one of the compounds at a final concentration that ranges from 5 to 50 μM. All components were assembled on ice and incubated for 30 minutes at 37° C. After the incubation, the reactions were terminated by extraction with an equal volume of phenol. The topological state of the DNA samples was analyzed with 1% agarose gel electrophoresis in 1×TAE buffer, pH 7.8. Following electrophoresis, the agarose gel was stained with Ethidium Bromide, destained, and photographed under UV light. The intensity of DNA topoisomers was determined using KODAK 1D Image Analysis Software. The percentage of (−) supercoiled DNA was calculated from a comparison of the intensity of the (−) supercoiled band with the total intensity of all DNA topoisomers. The IC50 was calculated as the amount of the drug for which 50% of the DNA was in a (−) supercoiled state.

E. coli DNA Gyrase = E. coli DNA Gyrase (Escherichia coli, UniProt P0AES4+P0AES6); experiment: Inhibition assay against E. coli DNA gyrase (plasmid supercoiling, agarose gel); type: biochemical; settings: 1 to 50 μM compound
Description: Inhibition Assays Against E. coli DNA Gyrase:
The reaction mixture (30 μl) contained 35 mM Tris-HCl at pH 7.5, 24 mM KCl, 4 mM MgCl2, 2 mM DTT, 1.75 mM ATP, 5 mM spermidine, 0.1 mg/ml BSA, 6.5% glycerol, 250 ng of the relaxed plasmid pBAD-GFPuv, 0.5 units of E. coli DNA Gyrase, and one of the compounds at a final concentration that ranges from 1 to 50 μM. All components were assembled on ice and incubated for 30 minutes at 37° C. After the incubation, the reactions were terminated by extraction with an equal volume of phenol. The topological state of the DNA samples was analyzed with 1% agarose gel electrophoresis in 1×TAE buffer, pH 7.8. Following electrophoresis, the agarose gel was stained with Ethidium Bromide, destained, and photographed under UV light. The intensity of DNA topoisomers was determined using KODAK 1D Image Analysis Software.

[2] = system: Staphylococcus aureus ATCC 29213; experiment: MIC by microbroth dilution, S. aureus 29213; type: cell-based; settings: for MIC S1 = S. aureus 29213: 24 h 37° C.; for MIC: Staphylococcus aureus, ATCC29213, 24 h 37° C., read-out: MIC S1 = S. aureus 29213
Description: (§1) Minimum Inhibitory Concentration (MIC) Determination:
(§2) Bacteria used in this study were Staphylococcus aureus ATCC 29213, Escherichia coli ATCC 25922, Escherichia coli K12, Staphylococcus aureus ATCC 33591, Pseudomonas aeruginosa ATCC 27853, and Enterococcus faecalis ATCC 29212. All compounds were tested by the microbroth dilution method following Clinical and Laboratory Standards Institute guidelines. Briefly, Mueller-Hinton broth (Difco Laboratories, Becton Dickinson) was inoculated with each organism and incubated at 37° C. with shaking to establish logarithmic growth. Following incubation, each culture was pelleted by centrifugation (3,500×g for 5 min) and resuspended in 0.85% sterile saline solution to an optical density at 625 nm of 0.1. Samples were tested in triplicate using 96 well microplates (Corning Costar Corp. Cambridge, Mass.), yielding final bacterial concentrations of 5×10^5 CFU/mL, and incubated for 24 h at 37° C. Following incubation, optical densities of each well were determined with a μQuant microplate spectrophotometer (BioTek Instruments, Inc., Winooski, Vt.) at 625 nm.

[3] = system: Staphylococcus aureus ATCC 33591; experiment: MIC by microbroth dilution, S. aureus 33591; type: cell-based; settings: for MIC S2 = S. aureus 33591: 24 h 37° C.; for MIC: Staphylococcus aureus, ATCC33591, 24 h 37° C., read-out: MIC S2 = S. aureus 33591
Description: as §1, §2

[4] = system: Escherichia coli ATCC 25922; experiment: MIC by microbroth dilution, E. coli 25922; type: cell-based; settings: for MIC S3 = E. coli 25922: 24 h 37° C.; for MIC: Escherichia coli, ATCC25922, 24 h 37° C., read-out: MIC S3 = E. coli 25922
Description: as §1, §2

[5] = system: Pseudomonas aeruginosa ATCC 27853; experiment: MIC by microbroth dilution, P. aeruginosa 27853; type: cell-based; settings: for MIC S4 = P. aeruginosa 27853: 24 h 37° C.; for MIC: Pseudomonas aeruginosa, ATCC27853, 24 h 37° C., read-out: MIC S4 = P. aeruginosa 27853
Description: as §1, §2

Escherichia coli K12 = experiment: MIC by microbroth dilution, E. coli K12; type: cell-based; settings: for MIC S5 = E. coli K 12: 24 h 37° C.; for MIC: Escherichia coli, K12, 24 h 37° C., read-out: MIC S5 = E. coli K 12
Description: as §1, §2

[6] = system: Enterococcus faecalis ATCC 29212; experiment: MIC by microbroth dilution, E. faecalis 29212; type: cell-based; settings: for activity against E. faecalis 29212 (in words): comment on Table 4; for MIC S6 = E. faecalis 29212 / MIC: microbroth dilution, 24 h 37° C.; for MIC: Enterococcus faecalis, ATCC29212, read-out: MIC S6 = E. faecalis 29212
Description: as §1, §2

DU 145 cell line = experiment: Cytotoxicity, sulforhodamine B assay; type: cell-based; settings: for IC50: 48 h treatment, SRB stain, read-out: IC50 against DU-145
Description: Cytotoxicity Experiments:
The DU 145 cell line was cultured according to ATCC protocols. Cells were harvested using trypsin-EDTA solution and counted using trypan blue exclusion. Cells were seeded at a volume of 100 μl/well in the wells of tissue culture treated 96 well plates at a density of […] per well. Seeded 96 well plates were returned to incubator (37° C., 5% CO2) for twenty-four hours to resume exponential growth.
Cell lines were then treated with 100 μl of each test compound or cisplatin in triplicate. The final concentrations of each treatment were: 20, 10, 5, 2.5, 1.25, 0.625 and 0.0625 μM. Each plate also contained wells containing untreated cells and media only as controls. After receiving treatments, the 96 well plates were returned to incubator (37° C., 5% CO2) for forty-eight hours.
After forty-eight hours of treatment, the treated plates were fixed with trichloroacetic acid and stained with sulforhodamine B using a modified version of the protocol described by Skehan et al. In short, 50 μl of cold 80% TCA was added to each well, at a final concentration of 16% TCA, and plates were incubated at 4° C. for one hour. The media and TCA solution was discarded and plates were washed four times using room temperature tap water. Plates were allowed to air dry overnight. Plates were stained with the addition of 70 μl/well of […] SRB in 1% (v/v) acetic acid solution. Samples were stained for fifteen minutes and then stain was discarded. Plates were then washed four times with 1% (v/v) acetic acid solution to remove unbound stain and allowed to air dry overnight at room temperature. Finally, SRB stain was solubilized by adding 150 μl of 10 mM unbuffered Tris base to each well. The absorbance of each samples at 560 nm was recorded using a Tecan plate reader and the IC50 was determined using Origin 4.0 software. Each study was completed in duplicate.

Sequence of human DNA topoisomerase II (P11388 whole entry): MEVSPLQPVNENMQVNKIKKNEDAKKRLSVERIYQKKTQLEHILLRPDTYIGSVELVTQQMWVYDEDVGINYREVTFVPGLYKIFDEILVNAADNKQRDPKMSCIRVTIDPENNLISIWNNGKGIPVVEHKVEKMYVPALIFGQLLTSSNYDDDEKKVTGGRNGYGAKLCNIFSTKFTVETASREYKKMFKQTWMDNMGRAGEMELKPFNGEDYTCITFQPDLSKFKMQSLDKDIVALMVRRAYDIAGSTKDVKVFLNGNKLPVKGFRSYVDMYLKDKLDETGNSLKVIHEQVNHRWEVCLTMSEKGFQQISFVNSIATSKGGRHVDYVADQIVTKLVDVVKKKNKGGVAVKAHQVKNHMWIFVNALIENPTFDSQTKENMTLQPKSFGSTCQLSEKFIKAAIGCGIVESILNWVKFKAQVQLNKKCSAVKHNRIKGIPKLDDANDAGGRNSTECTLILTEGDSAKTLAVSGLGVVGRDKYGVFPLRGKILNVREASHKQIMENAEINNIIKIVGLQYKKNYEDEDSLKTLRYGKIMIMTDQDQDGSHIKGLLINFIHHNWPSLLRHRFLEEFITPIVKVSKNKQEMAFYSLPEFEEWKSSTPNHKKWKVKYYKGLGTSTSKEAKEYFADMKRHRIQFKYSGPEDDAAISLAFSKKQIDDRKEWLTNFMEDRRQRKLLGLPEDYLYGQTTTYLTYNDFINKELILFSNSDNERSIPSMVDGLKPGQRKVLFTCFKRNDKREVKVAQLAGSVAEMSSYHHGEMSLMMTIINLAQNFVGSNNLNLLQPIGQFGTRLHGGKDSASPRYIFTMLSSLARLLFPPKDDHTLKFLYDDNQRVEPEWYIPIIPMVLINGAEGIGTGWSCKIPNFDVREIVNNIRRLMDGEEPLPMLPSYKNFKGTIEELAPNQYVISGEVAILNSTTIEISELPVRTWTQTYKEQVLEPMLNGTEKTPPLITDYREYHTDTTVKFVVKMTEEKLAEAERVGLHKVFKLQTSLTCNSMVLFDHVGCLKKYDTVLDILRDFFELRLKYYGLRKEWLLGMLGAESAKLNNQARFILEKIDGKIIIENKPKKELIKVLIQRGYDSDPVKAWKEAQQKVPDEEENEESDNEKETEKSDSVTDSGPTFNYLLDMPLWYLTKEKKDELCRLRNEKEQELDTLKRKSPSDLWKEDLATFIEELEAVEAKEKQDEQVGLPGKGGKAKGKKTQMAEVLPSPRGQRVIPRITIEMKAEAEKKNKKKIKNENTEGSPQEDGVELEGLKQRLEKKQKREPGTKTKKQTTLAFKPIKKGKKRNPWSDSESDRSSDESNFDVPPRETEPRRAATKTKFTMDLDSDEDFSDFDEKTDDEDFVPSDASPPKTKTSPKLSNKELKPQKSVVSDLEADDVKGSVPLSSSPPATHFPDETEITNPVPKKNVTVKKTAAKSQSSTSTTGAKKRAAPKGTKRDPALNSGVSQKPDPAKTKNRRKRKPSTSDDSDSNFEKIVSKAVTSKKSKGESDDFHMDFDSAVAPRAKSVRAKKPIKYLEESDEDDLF
Sequence of E. coli DNA Gyrase (P0AES4 whole entry, one chain of several): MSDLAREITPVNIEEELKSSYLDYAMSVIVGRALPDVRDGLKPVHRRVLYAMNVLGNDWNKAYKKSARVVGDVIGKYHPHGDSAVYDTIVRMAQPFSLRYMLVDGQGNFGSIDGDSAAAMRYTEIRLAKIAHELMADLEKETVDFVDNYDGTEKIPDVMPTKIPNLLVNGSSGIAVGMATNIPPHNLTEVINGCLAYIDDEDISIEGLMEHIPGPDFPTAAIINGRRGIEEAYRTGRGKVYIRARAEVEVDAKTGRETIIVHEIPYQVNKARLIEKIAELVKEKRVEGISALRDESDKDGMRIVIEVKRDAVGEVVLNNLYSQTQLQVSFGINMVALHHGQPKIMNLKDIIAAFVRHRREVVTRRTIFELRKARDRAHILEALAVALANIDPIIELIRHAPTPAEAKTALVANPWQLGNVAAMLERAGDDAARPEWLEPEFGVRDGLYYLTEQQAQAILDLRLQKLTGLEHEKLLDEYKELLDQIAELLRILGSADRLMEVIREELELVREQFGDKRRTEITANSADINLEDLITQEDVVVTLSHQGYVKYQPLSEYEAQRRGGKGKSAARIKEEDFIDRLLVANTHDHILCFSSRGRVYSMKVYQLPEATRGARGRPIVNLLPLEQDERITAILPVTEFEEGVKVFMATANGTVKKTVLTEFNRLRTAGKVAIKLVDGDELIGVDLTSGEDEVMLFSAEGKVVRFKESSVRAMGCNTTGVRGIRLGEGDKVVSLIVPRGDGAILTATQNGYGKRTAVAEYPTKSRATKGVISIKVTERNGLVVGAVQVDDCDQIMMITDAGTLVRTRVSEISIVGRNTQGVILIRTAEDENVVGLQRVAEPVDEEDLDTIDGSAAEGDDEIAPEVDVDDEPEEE

CN1CCN(c2ccc3[nH]c(-c4ccc5[nH]c(-c6ccc(O)cc6)nc5c4)nc3c2)CC1 [Hoechst 33258, reference compound]
inhibition of human DNA topoisomerase II activities at 50 μM [1]: completely inhibit
IC50 [1]: 28.9 ± 4.45 µM
inhibition of DNA gyrase's activities (E. coli DNA Gyrase): did not inhibit
MIC S1 = S. aureus 29213 [2]: ≥32^ ^ μg/ml
MIC S2 = S. aureus 33591 [3]: 16 to 32 µg/mL
MIC S3 = E. coli 25922 [4]: 16 µg/mL (≈ 37.7 µM)
MIC S4 = P. aeruginosa 27853 [5]: 16 µg/mL (≈ 37.7 µM)
MIC S5 = E. coli K 12 (Escherichia coli K12): 16 µg/mL (≈ 37.7 µM)
activity against E. faecalis 29212 (in words) [6]: not good inhibitors
MIC S6 = E. faecalis 29212 [6]: 16 to 32 µg/mL

C#CCCCCOc1ccc(-c2nc3ccc(-c4nc5ccc(N6CCN(C)CC6)cc5[nH]4)cc3[nH]2)cc1 [DPA 152, 2′-(4-(hex-5-ynyloxy)phenyl)-6-(4-methylpiperazin-1-yl)-1H,3′H-2,5′-bibenzo[d]imidazole]
cytotoxicity relative to Hoechst 33242 (DU 145 cell line; DU-145, 48 h): nearly twice as toxic as Hoechst 33242
IC50 (DU 145 cell line; Homo sapiens, DU-145): 2.12 ± 0.46 µM
MIC [2]: 2 to 4 µg/mL (≈ 3.96 to 7.93 µM)
MIC [3]: 2 to 4 µg/mL (≈ 3.96 to 7.93 µM)
MIC [4]: 8 to 16 µg/mL (≈ 15.9 to 31.7 µM)
MIC [5]: 16 µg/mL (≈ 31.7 µM)
MIC (Escherichia coli K12): 8 to 16 µg/mL (≈ 15.9 to 31.7 µM)
MIC [6]: 4 µg/mL (≈ 7.93 µM)
activity against E. faecalis 29212 (in words) [6]: markedly improved activity
melting point: 210 to 220 °C

C#CCOc1ccc(-c2nc3ccc(-c4nc5ccc(N6CCN(C)CC6)cc5[nH]4)cc3[nH]2)cc1 [DPA 151, 6-(4-methylpiperazin-1-yl)-2′-(4-(prop-2-ynyloxy)phenyl)-1H,3′H-2,5′-bibenzo[d]imidazole]
inhibition of human DNA topoisomerase II activities at 50 μM [1]: partially inhibit
IC50 [1]: 51.6 ± 2.5 µM
IC50 (DU 145 cell line; Homo sapiens, DU-145): 3.24 ± 0.71 µM
MIC [2]: 2 to 4 µg/mL (≈ 4.32 to 8.65 µM)
MIC [3]: 2 to 4 µg/mL (≈ 4.32 to 8.65 µM)
MIC [4]: 8 µg/mL (≈ 17.3 µM)
MIC (Escherichia coli K12): 8 µg/mL (≈ 17.3 µM)
MIC [6]: 16 to 32 µg/mL (≈ 34.6 to 69.2 µM)

C#CCCCCCCCCCOc1ccc(-c2nc3ccc(-c4nc5ccc(N6CCN(C)CC6)cc5[nH]4)cc3[nH]2)cc1 [DPA 153, 6-(4-methylpiperazin-1-yl)-2′-(4-(undec-10-ynyloxy)phenyl)-1H,3′H-2,5′-bibenzo[d]imidazole]
IC50 (DU 145 cell line; Homo sapiens, DU-145): > 10 µM
MIC (Escherichia coli K12): 8 to 16 µg/mL (≈ 13.9 to 27.8 µM)
MIC [6]: 16 to 32 µg/mL (≈ 27.8 to 55.7 µM)
melting point: 170 to 175 °C

C#CCOCCCCOc1ccc(-c2nc3ccc(-c4nc5ccc(N6CCN(C)CC6)cc5[nH]4)cc3[nH]2)cc1 [DPA 154, 6-(4-methylpiperazin-1-yl)-2′-(4-(4-(prop-2-ynyloxy)butoxy)phenyl)-1H,3′H-2,5′-bibenzo[d]imidazole]
IC50 (DU 145 cell line; Homo sapiens, DU-145): 2.79 ± 0.13 µM
MIC [2]: 2 to 4 µg/mL (≈ 3.74 to 7.48 µM)
MIC [3]: 2 to 4 µg/mL (≈ 3.74 to 7.48 µM)
MIC [4]: 8 to 16 µg/mL (≈ 15 to 29.9 µM)
MIC [5]: 16 µg/mL (≈ 29.9 µM)
MIC (Escherichia coli K12): 8 to 16 µg/mL (≈ 15 to 29.9 µM)
activity against E. faecalis 29212 (in words) [6]: markedly improved activity
melting point: 150 to 155 °C

CCOc1ccc(-c2nc3ccc(-c4nc5ccc(N6CCN(C)CC6)cc5[nH]4)cc3[nH]2)cc1 [Hoechst 33342, reference compound]
IC50 (DU 145 cell line): 4.25 µM
MIC S1 = S. aureus 29213 [2]: 2 to 4 µg/mL
MIC S2 = S. aureus 33591 [3]: 2 to 4 µg/mL
MIC S3 = E. coli 25922 [4]: 8 to 16 µg/mL
MIC S4 = P. aeruginosa 27853 [5]: 16 µg/mL (≈ 35.4 µM)
MIC S5 = E. coli K 12 (Escherichia coli K12): 8 µg/mL (≈ 17.7 µM)
activity against E. faecalis 29212 (in words) [6]: not good inhibitors
MIC S6 = E. faecalis 29212 [6]: 16 to 32 µg/mL
